Source: US4525473A, “Cephalosporins” (Bristol-Myers Company, priority 1983, dated 1985)
In brackets after ≈: the same amount, converted by molar mass. Like-named read-outs stand apart in the source and are kept apart here.

Assays:
Assay type in all cases: cell-based
[1] = tested on: Cephalothin(CET)sensitive E. coli (2 strains), K. pneumoniae (1) and P. mirabilis (2); assay: MIC by two-fold serial agar dilution in Mueller-Hinton agar, Gn-Ia; conditions: for MIC: read-out: Geometric Mean of MIC
Protocol: (§1) In the primary evaluation of the compounds of this invention, the Minimum Inhibitory Concentrations (MIC's) of the compounds were determined by the two-fold serial agar dilution method in Mueller-Hinton agar against 32 strains of test organisms in six groups.
GnIa: Cephalothin(CET)sensitive E. coli (2 strains), K. pneumoniae (1) an […]

P. aeruginosa = assay: MIC by two-fold serial agar dilution in Mueller-Hinton agar, Gn-III; conditions: for MIC: Pseudomonas aeruginosa, read-out: Geometric Mean of MIC
Protocol: as §1

[2] = tested on: M. morganii (1), E. cloacae (2) and S. marcescens (2); assay: MIC by two-fold serial agar dilution in Mueller-Hinton agar, Gn-II; conditions: for MIC: read-out: Geometric Mean of MIC
Protocol: as §1
GnII: M. morganii (1), E. cloacae (2) and S. marcescens (2)

[3] = tested on: Penicillin(PC)sensitive S. aureus; assay: MIC by two-fold serial agar dilution in Mueller-Hinton agar, Gp-Ia; conditions: for MIC: Staphylococcus aureus
Protocol: as §1
Gp-Ia: Penicillin(PC)sensitive S. aureus

PCresistant S. aureus = assay: MIC by two-fold serial agar dilution in Mueller-Hinton agar, Gp-Ib; conditions: Gp-Ib, 5 strains, PC-resistant S. aureus; for MIC: Staphylococcus aureus, read-out: Geometric Mean of MIC
Protocol: as §1
GpIb: PCresistant S. aureus

[4] = tested on: CETresistant E. coli (3) and K. pneumoniae (2); assay: MIC by two-fold serial agar dilution in Mueller-Hinton agar, Gn-Ib; conditions: for MIC: Escherichia coli, read-out: Geometric Mean of MIC; for Geometric Mean of MIC: Gn-Ib, 5 strains, CET-resistant
Protocol: as §1
GnIb: CETresistant E. coli (3) and K. pneumoniae (2)

[5] = Gn-III, 7 strains, P. aeruginosa
[6] = Gp-Ia, 5 strains, PC-sensitive S. aureus, read-out: Geometric Mean of MIC
[7] = Gn-Ia, 5 strains, CET-sensitive
[8] = Gp-Ia, 5 strains, PC-sensitive S. aureus

Compound | MIC [1] [µg/mL] | MIC (P. aeruginosa; [5]) [µg/mL] | MIC [2] [µg/mL] | MIC [3, 6] [µg/mL] | MIC (PCresistant S. aureus) [µg/mL] | MIC [4] [µg/mL] | MIC [1, 7] [µg/mL] | MIC (P. aeruginosa) [µg/mL] | MIC ([2]; Gn-II, 5 strains) [µg/mL] | Geometric Mean of MIC [1, 7] [µg/mL] | Geometric Mean of MIC (P. aeruginosa; [5]) [µg/mL] | Geometric Mean of MIC ([2]; Gn-II, 5 strains) [µg/mL] | Geometric Mean of MIC [3, 8] [µg/mL] | Geometric Mean of MIC (PCresistant S. aureus) [µg/mL] | Geometric Mean of MIC [4] [µg/mL] | MIC ([3]; read-out: Geometric Mean of MIC, Gp-Ia, 5 strains, PC-sensitive S. aureus) [µg/mL]
CO/N=C(\C(=O)NC1C(=O)N2C(C(=O)[O-])=C(C[N+]3(CC(=O)O)CCCC3)CS[C@H]12)c1csc(N)n1 (stereo partly drawn) [Example 16, 7-[(Z)-2-(2-Aminothiazol-4-yl)-2-methoxyiminoacetamido]-3-[1-(carboxymethyl)pyrrolidinio]methyl-3-cephem-4-carboxylate] | 0.02 (≈ 0.0381 µM) | 5.1 (≈ 9.72 µM) | 0.14 (≈ 0.267 µM) | 6.5 (≈ 12.4 µM) | 17 (≈ 32.4 µM) | 0.23 (≈ 0.438 µM) | – | – | – | – | – | – | – | – | – | –
CO/N=C(\C(=O)NC1C(=O)N2C(C(=O)[O-])=C(C[N+]3(C)CC=CC3)CS[C@H]12)c1csc(N)n1 (stereo partly drawn) [Example 11, 7-[(Z)-2-(2-Aminothiazol-4-yl)-2-methoxyiminoacetamido]-3-(1-methyl-3-pyrrolinio)methyl-3-cephem-4-carboxylate] | – | – | – | 0.78 (≈ 1.63 µM) | 2.1 (≈ 4.39 µM) | 0.17 (≈ 0.355 µM) | 0.019 (≈ 0.0397 µM) | 2.5 (≈ 5.22 µM) | 0.15 (≈ 0.313 µM) | – | – | – | – | – | – | –
7-[(Z)-2-(2-Aminothiazol-4-yl)-2-methoxyiminoacetamido]-3-[(6-methyl-5,6,7,8-tetrahydro-6-[1,6]naphthylidinio)methyl]-3-cephem-4-carboxylate [Example 23] | – | – | – | – | – | – | – | – | – | 0.070 | 6.3 | 0.96 | 1.4 | 2.9 | 0.28 | –
C=CC[N+]1(CC2=C(C(=O)[O-])N3C(=O)C(NC(=O)/C(=N\OC)c4csc(N)n4)[C@H]3SC2)CCCC1 (stereo partly drawn) [Example 21, 7-[(Z)-2-(2-Aminothiazol-4-yl)-2-methoxyiminoacetamido]-3-(N-allylpyrrolidinio)methyl-3-cephem-4-carboxylate] | – | 6.5 (≈ 12.8 µM) | – | – | 2.9 (≈ 5.72 µM) | 0.15 (≈ 0.296 µM) | 0.045 (≈ 0.0888 µM) | – | 0.18 (≈ 0.355 µM) | – | – | – | – | – | – | 1.1 (≈ 2.17 µM)
CO/N=C(\C(=O)NC1C(=O)N2C(C(=O)[O-])=C(C[N+]3(C)CCSC3)CSC12)c1csc(N)n1 (single isomer, unassigned) [13 Isomer B] | 0.029 (≈ 0.0582 µM) | – | – | – | – | – | – | 2.5 (≈ 5.01 µM) | – | – | – | 0.13 | 0.72 | 1.6 | 0.13 | –
